Data set [1] concerns steatotic hepatocytes. In words: Defatting of steatotic cultured hepatocytes with defatting media. The class given is cell-based, rat. To be noted: for effect on the defatting process (fat reduction): agent added in high insulin containing media; for effect on the defatting process (lipid removal): agent added in low insulin-containing medium. On the procedure: It has previously been shown that collagen-sandwiched adult rat hepatocytes which are seeded and maintained in standard hepatocyte culture medium and then exposed to either rat or human plasma become severely steatotic within 24 hours with a concomitant reduction in liver-specific functions (Matthew et al., Biotechnol. Bioeng. 51: 100-111, 1995; Stefanovich et al., J. Surg. Res. 66: 57-63, 1996).
In the next set of experiments, we induced steatosis in hepatocytes by exposing them to high insulin levels followed by plasma for 2 days, and attempted to defat them using the following conditions: plasma supplemented with amino acids and low insulin levels; culture medium containing high insulin ([…]); culture medium containing low insulin (50 μU/mL) levels. We then measured the fraction of remaining triglycerides after 1 and 2 days of treatment. […] The triglyceride removal kinetic data in Table 2 was used to calculate a defatting rate for each defatting condition. For this purpose, the fraction of initial triglyceride remaining was plotted as a function of time on a semi-log plot, which yielded linear curves (not shown). The slopes of these lines, which correspond to the first order rate of decay or triglyceride clearance from the cells during defatting, are shown in Table 2 for each defatting condition tested. From these values, we can predict the fraction of intracellular lipid remaining after any treatment time using the simple equation: Triglyceride Fraction Remaining=100e^−[RateConstant][TreatmentTime] (equation 1)

Data set [2] relates to recipient rats. In words: Survival of recipient rats after fatty liver transplantation. Type of data set: in vivo, rat. The conditions noted are these: up to 1 week after transplantation, vs Sham group. On the procedure:
(§1) Donor animals were divided into three groups; heat shock preconditioning (HPc) group, sham HPc (Sham) group, and gadolinium chloride (GdCl3) group. In the HPc group, rats were anesthetized and placed in a waterproof bag that was then immersed in a 43° C. water bath to elevate the core body temperature (measured via a rectal digital thermometer) to 42-42.5° C. Animals were maintained at that temperature for 10 min and then removed from the warm bath. Animals then received 10 ml/kg intraperitoneal saline injection and were allowed to recover with free access to food and water. Animals in the Sham and GdCl3 groups underwent the same procedures except that they were immersed in a 37° C. bath (sham HPc). In the GdCl3 group, Kupffer cell deactivation was achieved by two 20 mg/kg GdCl3 (Sigma, St. Louis, Mo.) intravenous injection 48 and 24 hours before donor liver harvesting. In the Sham and HPc groups, sterile nonpyrogenic saline was used as instead of GdCl3 solution. Donor livers were harvested 24 hours after HPc or sham HPc. […]
(§2) Isogenic orthotopic liver transplantation was performed as described by Kamada and Calne (Kamada et al., Transplantation 28:47-50, 1979). […] For survival studies, the animals were returned to standard housing facilities and monitored for up to one week. […]

For data set [3], the system named is IFN-γ mRNA. In words: RT-PCR of IFN-γ mRNA in purified liver T cells after transplantation. To be noted: 24 hours after transplantation; donor GdCl3 pretreatment. The class given is in vivo, rat. On the procedure: (§3) Donor animals were divided into three groups; heat shock preconditioning (HPc) group, sham HPc (Sham) group, and gadolinium chloride (GdCl3) group. In the HPc group, rats were anesthetized and placed in a waterproof bag that was then immersed in a 43° C. water bath to elevate the core body temperature (measured via a rectal digital thermometer) to 42-42.5° C. Animals were maintained at that temperature for 10 min and then removed from the warm bath. Animals then received 10 ml/kg intraperitoneal saline injection and were allowed to recover with free access to food and water. Animals in the Sham and GdCl3 groups underwent the same procedures except that they were immersed in a 37° C. bath (sham HPc). In the GdCl3 group, Kupffer cell deactivation was achieved by two 20 mg/kg GdCl3 (Sigma, St. Louis, Mo.) intravenous injection 48 and 24 hours before donor liver harvesting. In the Sham and HPc groups, sterile nonpyrogenic saline was used as instead of GdCl3 solution. Donor livers were harvested 24 hours after HPc or sham HPc. In some experiments, rats were pretreated with 5 mg/kg i.m. Cyclosporine A (CyA; Sigma) 6 hours before donor liver harvesting.
Three hours or 24 hours after liver transplantation, transplanted liver were perfused with sterile PBS through the portal vein to wash out all remaining peripheral blood and then meshed with stainless steel mesh. […]

Data set [4] has as its system transplanted fatty livers. In words: Histology of transplanted fatty livers. Type of data set: in vivo, rat. The conditions noted are these: 3 hours after transplantation, compared to Sham group livers. On the procedure:
as §1, §2

The test system of data set [5] is liver CD4+ T cells. In words: IFN-γ production by liver CD4+ T cells on anti-CD3 mAb-coated plates (ELISA). Type of data set: cell-based, rat. To be noted: 24 hours after transplantation; donor GdCl3 pretreatment. On the procedure:
as §3
Liver lymphocytes were obtained by the same method previously described. […] IFN-γ and IL-4 levels in the culture supernatants were determined by ELISA.
(In general: ELISA stands for enzyme-linked immunosorbent assay.)

In data set [6] the test system is HSP72 and HO-1. In words: Western blot of HSP72 and HO-1 in hepatocytes, CD4+ and CD8+ T cells of donor fatty liver. Type of data set: in vivo, rat. The conditions noted are these: at time of harvesting; GdCl3 20 mg/kg i.v. 48 and 24 hours before harvesting. On the procedure:
as §3
Donor rats were sacrificed up to 240 hours after HPc. […] Protein signals were visualized by chemiluminescence (Pierce, Rockford, Ill.) and recorded on a GS282 Scanner (BioRad, Hercules, Calif.).
(In general: A western blot detects proteins with antibodies after separation by electrophoresis.)

Data set [7] concerns liver I/R injury in steatotic liver transplantation. In words: Serum ALT after fatty liver transplantation. The class given is in vivo, rat. To be noted: donor GdCl3 pretreatment. On the procedure: as §3
Isogenic orthotopic liver transplantation was performed as described by Kamada and Calne (Kamada et al., Transplantation 28:47-50, 1979). Donor livers were harvested 3, 6, 24, 48, or 72 hours after HPc. Briefly, the bile duct was cannulated with a short intraluminal polyethylene stent. […] The infrahepatic and suprahepatic vena cava, including part of the diaphragm, were transected. […] For survival studies, the animals were returned to standard housing facilities and monitored for up to one week. […]
(§4) To assess liver injury, alanine aminotransferase (ALT) was measured in serum samples using a commercially available kit (Sigma). TNF-α, IL-10, IL-4, IL-12, and IFN-γ levels in serum and cell culture supernatant were determined by Enzyme-linked immunosorbent assay (ELISA). […]

For data set [8], the system named is IL-12p70, TNF-α and IL-10. In words: Serum cytokine levels (ELISA) after fatty liver transplantation. Type of data set: in vivo, rat. The conditions noted are these: donor GdCl3 pretreatment. On the procedure:
as §1, with “harvesting.” for “harvesting. In the Sham and HPc groups, sterile nonpyrogenic saline was used as instead of GdCl3 solution. Donor livers were harvested 24 hours after HPc or sham HPc.”
as §2, §4

In data set [9] the test system is intrahepatic neutrophil accumulation. In words: Myeloperoxidase content of liver tissue (neutrophil accumulation) after transplantation. Type of data set: in vivo, rat. On the procedure:
as §1, with “HPc).” for “HPc). In the GdCl3 group, Kupffer cell deactivation was achieved by two 20 mg/kg GdCl3 (Sigma, St. Louis, Mo.) intravenous injection 48 and 24 hours before donor liver harvesting. In the Sham and HPc groups, sterile nonpyrogenic saline was used as instead of GdCl3 solution. Donor livers were harvested 24 hours after HPc or sham HPc.”
as §2
The presence of myeloperoxidase (MPO), enzyme specific for neutrophil (and some macrophages), was used as an index of intrahepatic neutrophil accumulation. […] The change in absorbance was measured by spectrophotometry at 450 nm. One unit of MPO activity was defined as the quantity of enzyme degrading 1 μM peroxide per minute at 25° C. per gram of tissue.

Data set [10] deals with liver CD4+ and CD8+ T cells. In words: Flow cytometry of liver T cells after transplantation. Type of data set: in vivo, rat. The conditions noted are these: for CD3+CD4+ relative number of T cells in the liver / CD3+CD8+ relative number of T cells in the liver: mean ± SD. On the procedure: as §3
Three hours or 24 hours after liver transplantation, transplanted liver were perfused with sterile PBS through the portal vein to wash out all remaining peripheral blood and then meshed with stainless steel mesh. After the coarse pieces were removed by centrifugation at 50 g for 1 min, the cell suspensions were again centrifuged, resuspended in 8 mL of 45% Percoll (Sigma), and layered on 5 mL of 67.5% Percoll. The gradients were centrifuged at 600 g at 20° C. for 20 min. Lymphocytes at the interface were harvested and washed twice with PBS. CD4^+ or CD8^+ T cells were purified by Rat T cell CD4 or CD8 column kit (R&D systems, Minneapolis, […].) from the harvested liver lymphocytes. The purity of sorted cells was more than 95%.
For 3-color analysis, liver lymphocytes were incubated with saturating amounts of phycoerythrin-conjugated anti-rat CD3α mAb (Pharmingen, San Diego, Calif.) and fluorescein isothiocyanate-conjugated anti-rat CD4 mAb (Pharmingen) for 30 min. Cells were analyzed with a FACSCalibur flow cytometer (Becton Dickinson, San Jose, Calif.). We carefully gated cells by forward and side light scattering for the liver lymphocytes. The data were analyzed using CyQuest software (Becton Dickinson).
(In general: In flow cytometry, cells or beads pass a laser one at a time.)

Entries after “also recorded” stand apart in the source; their conditions may differ.

For the molecule hepatocyte growth factor, in data set [1], the “effect on the defatting process (fat reduction)” value is reported as “Some fat-reducing effects were seen” and the “effect on the defatting process (lipid removal)” value is listed as “did not further enhance lipid removal”.
As to `[Cl][Gd]([Cl])[Cl]` [GdCl3, gadolinium chloride], the recipient survival rate entry in data set [2] is “no significant difference; also recorded: did not improve the recipient survival rate”. Besides, in data set [3], the “expression level of IFN-γ mRNA in isolated CD3+ CD4+ cells” value was “much higher than that from HPc group” and the “expression level of IFN-γ mRNA in isolated CD3+ CD8+ cells” value is “remained low in all three groups”. Also, in [4], the “hemorrhagic injury (histology)” value was “reduced hemorrhagic injury”. For the same molecule, the “IFN-γ production by liver CD4+ T cells” value in data set [5] was “did not suppress activation of or IFN-γ production”. For the same molecule, the “HSP72 and HO-1 expression in hepatocytes, CD4+ and CD8+ T cells” value in [6] is “neither HSP72 nor HO-1 was detected”. Moreover, in data set [7] (3 hours after transplantation, 12 hours cold preservation), the “serum ALT levels” value was “significantly lower than that of Sham group”. Besides, the liver injury entry in [7] (24 hours after transplantation) is reported as “did not suppress liver injury”. The “protection against I/R injury by phase” value in data set [7] (acute (3 hours) and subacute (24 hours) phase) was “only protected I/R injury in the acute phase”. Also, the “serum IL-12, TNF-α and IL-10 levels” value in data set [8] (3 hours after transplantation) is “moderated the initial increase in IL-12, TNF-α, and IL-10 significantly; also recorded: suppressed; also recorded: prevented the serum release of IL-12, TNF-α, and IL-10”. Also, the “serum TNF-α levels” value in data set [8] (24 hours after transplantation) is “not significantly different from that of liver controls”. Further, the “MPO levels of liver tissue” value in data set [9] (3 hours after transplantation) is “almost similar with no significant difference”. Also, the “MPO levels of liver tissue / neutrophil accumulation” value in data set [9] (24 hours after transplantation) was “no difference between the Sham group and the GdCl3-treated group; also recorded: did not suppress liver injury or neutrophil accumulation”. In data set [10] (3 hr after transplantation), the “CD3+CD4+ relative number of T cells in the liver” value was 8.4 ± 2.7 ×10^5 and the “CD3+CD8+ relative number of T cells in the liver” value was 4.2 ± 1.2 ×10^5. Besides, in [10] (24 hr after transplantation), the “CD3+CD4+ relative number of T cells in the liver” value is 7.2 ± 2.2 ×10^5 and the “CD3+CD8+ relative number of T cells in the liver” value is reported as 5.6 ± 2.3 ×10^5. Also, in [10] (any stage following transplantation), the “numbers of CD3+ CD8+ cells in the liver between groups” value is listed as “no difference”.
leptin: in data set [1], the “effect on the defatting process (fat reduction)” value is “Some fat-reducing effects were seen” and the “effect on the defatting process (lipid removal)” value is listed as “did not further enhance lipid removal”.

These data come from patent US20060166360A1, “Compositions, solutions, and methods used for transplantation” (The General Hospital Corporation, priority 2002, published 2006).
